# Columns and labels:
# RXF 393 = experiment: NCI 60 five dose assay, Renal cancer; format: cell-based, human
# CDK2 = experiment: Western blot of CDK2 expression in HCT-116 cells; format: cell-based; conditions: 3 μM, 48 h, vs vehicle treated cells
# From the text: The method of sodium dodecyl sulfate polyacrylamide gel electrophoresis (SDS-PAGE) is employed to separate proteins based on their size. When combined with western blotting (immunoblotting), both techniques are commonly used to identify the presence and/or relative abundance of a specific protein within a sample containing a complex mixture of proteins.[36] In this process, each sample's total protein content is loaded onto a gel and separated by electrophoresis, allowing proteins to migrate through the gel matrix under the influence of an electric current. To facilitate protein migration, the proteins are initially denatured and given a negative charge by exposure to a detergent like SDS. A molecular weight marker with known-sized bands assists in identifying proteins of interest. […] Typically, the secondary antibody is linked to an enzyme that generates luminescence upon reacting with its substrate. The intensity of the luminescence, directly correlating with the amount of protein that interacted with the antibody, is captured by a Bio-Rad Imager.[36] […]
# HCT-116 cells were treated with either 3 μM of compound 4 and 1 μM of compound 9 and incubated 48 h. The cells were lysed by 1× RIPA buffer containing protease and phosphatase inhibitors to quantify the protein concentration by BCA protein assay. […]
# SF-295 = experiment: NCI 60 single dose screen, CNS cancer; format: cell-based, human; conditions: single dose 10 μM
# Protocol: (§1) The newly synthesized pyrazoles 2a–g, 7a–d, 8a and b, 9, and 10 were submitted to the National Cancer Institute (NCI) Developmental Therapeutics Program (http://www.dtp.nci.nih.gov) for assessment of their potential antiproliferative activity against a panel of NCI 60 cancer cell lines. All compounds were approved for screening against the approved 60 cancer cell lines at a single dose of 10 μM. The human cancer cell lines were derived from 9 variant cancer types including leukemia, melanoma, lung, colon, CNS, ovarian, renal, prostate and breast cancers. The results are presented as percentage of growth inhibition (GI%) of the screened compounds against the full panel of cell lines.
# (§2) Under sterile conditions, the cell lines were grown in RPMI 1640 media (Gibco, NY, USA) supplemented with 10% fetal bovine serum (Biocell, CA, USA), and […] cell/mL was used to test the growth inhibition activity of the synthesized compounds. The compounds with concentrations ranging from 0.01 to 100 μM were prepared in phosphate buffer saline. Each compound was initially solubilized in dimethyl sulfoxide (DMSO); however, each final dilution contained less than 1% DMSO. Solutions of different concentrations (0.2 mL) were pipetted into the separate well of a microtiter tray in duplicate. […] After 48 h, the cells in each well were diluted 10 times with saline and counted using a Coulter counter. […]
# SF-268 = experiment: NCI 60 single dose screen, CNS cancer; format: cell-based, human; conditions: single dose 10 μM
# Protocol: as §1, §2
# in vitro = conditions: human
# UACC-62 = experiment: NCI 60 five dose assay, Melanoma; format: cell-based, human
# KM12 = experiment: NCI 60 five dose assay, Colon cancer; format: cell-based, human
# NCI-H322M = experiment: NCI 60 five dose assay, Non-small cell lung cancer; format: cell-based, human
# TK-10 = experiment: NCI 60 five dose assay, Renal cancer; format: cell-based, human
# HCT-15 = experiment: NCI 60 five dose assay, Colon cancer; format: cell-based, human
# OVCAR-8 = experiment: NCI 60 five dose assay, Ovarian cancer; format: cell-based, human
# MOLT-4 = experiment: NCI 60 five dose assay, Leukemia; format: cell-based, human
# A498 = experiment: NCI 60 five dose assay, Renal cancer; format: cell-based, human
# [1] = Homo sapiens, read-out: LC50 (the source's name)
smiles,measurement,setting,value
"CC(=NNc1ccc(S(N)(=O)=O)cc1)c1ccc(NN=C2C(=O)NN=C2Nc2ccccc2)cc1 [Compound 4, 4-(2-(1-(4-(2-(5-oxo-3-(phenylamino)-1,5-dihydro-4H-pyrazol-4-ylidene)hydrazinyl)phenyl)ethylidene)hydrazinyl)benzene sulfonamide]",GI50,RXF 393; Homo sapiens,1.1 µM
same,CC50,RXF 393; [1],21.1 µM
same,Percent Growth,RXF 393; Log10 Concentration -4.0 Molar,-76%
same,Percent Growth,RXF 393; Log10 Concentration -5.0 Molar,-37%
same,Percent Growth,RXF 393; Log10 Concentration -6.0 Molar,54%
same,Percent Growth,RXF 393; Log10 Concentration -7.0 Molar,99%
same,Percent Growth,RXF 393; Log10 Concentration -8.0 Molar,103%
same,expression of CDK-2 (western blot),CDK2,inhibitions in the expression of CDK-2
same,GI%,SF-295,94.88%
same,GI%,SF-268,90.67%
same,IC50,in vitro,41.2 µM
same,GI50,UACC-62; Homo sapiens,1.96 µM
same,CC50,UACC-62; [1],9.6 µM
same,Percent Growth,UACC-62; Log10 Concentration -4.0 Molar,-93%
same,Percent Growth,UACC-62; Log10 Concentration -5.0 Molar,-53%
same,Percent Growth,UACC-62; Log10 Concentration -6.0 Molar,92%
same,Percent Growth,UACC-62; Log10 Concentration -7.0 Molar,93%
same,Percent Growth,UACC-62; Log10 Concentration -8.0 Molar,89%
same,GI50,KM12; Homo sapiens,2.66 µM
same,CC50,KM12; [1],29.9 µM
same,Percent Growth,KM12; Log10 Concentration -4.0 Molar,-100%
same,Percent Growth,KM12; Log10 Concentration -5.0 Molar,-5%
same,Percent Growth,KM12; Log10 Concentration -6.0 Molar,90%
same,Percent Growth,KM12; Log10 Concentration -7.0 Molar,101%
same,Percent Growth,KM12; Log10 Concentration -8.0 Molar,98%
same,GI50,NCI-H322M; Homo sapiens,3.72 µM
same,CC50,NCI-H322M; [1],41.9 µM
same,Percent Growth,NCI-H322M; Log10 Concentration -4.0 Molar,-93%
same,Percent Growth,NCI-H322M; Log10 Concentration -5.0 Molar,21%
same,Percent Growth,NCI-H322M; Log10 Concentration -6.0 Molar,89%
same,Percent Growth,NCI-H322M; Log10 Concentration -7.0 Molar,99%
same,Percent Growth,NCI-H322M; Log10 Concentration -8.0 Molar,103%
same,GI50,TK-10; Homo sapiens,18.6 µM
same,CC50,TK-10; [1],> 100 µM
same,Percent Growth,TK-10; Log10 Concentration -4.0 Molar,-25%
same,Percent Growth,TK-10; Log10 Concentration -5.0 Molar,78%
same,Percent Growth,TK-10; Log10 Concentration -6.0 Molar,101%
same,Percent Growth,TK-10; Log10 Concentration -7.0 Molar,102%
same,Percent Growth,TK-10; Log10 Concentration -8.0 Molar,97%
same,GI50,HCT-15; Homo sapiens,5.29 µM
same,CC50,HCT-15; [1],42.9 µM
same,Percent Growth,HCT-15; Log10 Concentration -4.0 Molar,-100%
same,Percent Growth,HCT-15; Log10 Concentration -5.0 Molar,36%
same,Percent Growth,HCT-15; Log10 Concentration -6.0 Molar,87%
same,Percent Growth,HCT-15; Log10 Concentration -7.0 Molar,98%
same,Percent Growth,HCT-15; Log10 Concentration -8.0 Molar,99%
same,GI50,OVCAR-8; Homo sapiens,2.59 µM
same,CC50,OVCAR-8; [1],29 µM
same,Percent Growth,OVCAR-8; Log10 Concentration -4.0 Molar,-95%
same,Percent Growth,OVCAR-8; Log10 Concentration -5.0 Molar,-11%
same,Percent Growth,OVCAR-8; Log10 Concentration -6.0 Molar,93%
same,Percent Growth,OVCAR-8; Log10 Concentration -7.0 Molar,105%
same,Percent Growth,OVCAR-8; Log10 Concentration -8.0 Molar,97%
same,GI50,MOLT-4; Homo sapiens,1.64 µM
same,CC50,MOLT-4; [1],34.9 µM
same,Percent Growth,MOLT-4; Log10 Concentration -4.0 Molar,-69%
same,Percent Growth,MOLT-4; Log10 Concentration -5.0 Molar,-28%
same,Percent Growth,MOLT-4; Log10 Concentration -6.0 Molar,71%
same,Percent Growth,MOLT-4; Log10 Concentration -7.0 Molar,95%
same,Percent Growth,MOLT-4; Log10 Concentration -8.0 Molar,96%
same,GI50,A498; Homo sapiens,11.4 µM
same,CC50,A498; [1],94.7 µM
same,Percent Growth,A498; Log10 Concentration -4.0 Molar,-53%
same,Percent Growth,A498; Log10 Concentration -5.0 Molar,56%
same,Percent Growth,A498; Log10 Concentration -6.0 Molar,87%
same,Percent Growth,A498; Log10 Concentration -7.0 Molar,87%
same,Percent Growth,A498; Log10 Concentration -8.0 Molar,77%

# From PMC11520566, “Discovery of pyrazole-based analogs as CDK2 inhibitors with apoptotic-inducing activity: design, synthesis and molecular dynamics study” (RSC Advances, 2024)
